Patent US5476841A, “Inhibitors of herpes viral ribonucleotide reductase” (Bio-Mega/Boehringer Ingelheim Research Inc., priority 1994, dated 1995)
Where a SMILES comes first, the peptide text is derived from it. [ ]: non-standard residue; d: D form. The star is where a group is joined. Asp(3,3-(CH2)4) = N[C@H](C(=O)O)C1(C(=O)O)CCCC1; Dibenzylacetyl = O=C(C(Cc1ccccc1)Cc1ccccc1)*; Leu(γ-Me)ol = CC(C)(C)C[C@@H](CO)N*; tBuAla = CC(C)(C)C[C@H](N)C(=O)O; Tle = CC(C)(C)[C@H](N)C(=O)O; NMeV = CN[C@H](C(=O)O)C(C)C; X1 = CC[C@@H](N*)C(C)(C)C; Pyrrolidide = C1CCN(*)C1; NHCH2tBu = CC(C)(C)CN*

Tests used:
HSV-2 = assay: Inhibition of Herpes Simplex virus (HSV-2) replication in cell culture; type: cell-based; settings: BHK-21/C13 cells, serum starved, HSV-2 strain HG-52, 0.02 PFU/cell, 29 h incubation; read-out: EC50, concentration effecting a 50% inhibition of HSV-2 virus replication
Procedure: Inhibition of Herpes Simplex virus (HSV-2) Replication in Cell Culture
BHK-21/C13 cells (ATCC CCL 10) are incubated for two days in 150 cm^2 T-flasks (1.5×10^6 cells/flask) with alpha-MEM medium (Gibco Canada Inc., Burlington, Ontario, Canada) supplemented with 8% (v/v) fetal bovine serum (FBS, Gibco Canada Inc.). The cells are trypsinized and then transferred to fresh media in a 24 well plate to give 2.5×10^5 cells in 750 μL of media per well. The cells are incubated at 37° for a period of 6 h to allow them to adhere to the plate. Thereafter, the cells are washed once with 500 μL of alpha-MEM supplemented with 0.5% (v/v) FBS and then incubated with 750 μL of the same media (low serum) for 3 days. After this period of serum starvation, the low serum medium is removed and the cells are incubated in 500 μL of BBMT for 2 to 3 hours. {BBMT medium is described by P. Brazeau et al., Proc. Natl. Acad. Sci. USA, 79, 7909 (1982).} Thereafter, the cells are infected with HSV-2 (multiplicity of infection=0.02 PFU/cell) in 100 μL of BBMT medium. (Note: The HSV-2 used was strain HG-52, see Y. Langelier and G. Buttin, J. Gen. Virol., 57, 21 (1981); the virus was stored at -80°.) Following 1 h of virus adsorption at 37°, the media is removed and the cells are washed with BBMT (3×250 μL). The cells in each well are incubated with or without (control) appropriate concentrations of the test agent dissolved in 200 μL of BBMT medium. After 29 h of incubation at 37°, the infected cells are harvested by first freezing the plate at -80°, followed by thawing. The cells in each well are scraped off the surface of the well with the help of the melting ice fragments. After complete thawing, the cell suspensions are collected and each well is rinsed with 150 μL of BBMT medium. The viral sample (suspension plus washing) is sonicated gently for 4 min at 4°. Cell debris are removed by centrifugation (1000 times gravity for 10 minutes at 4°). The supernatant is collected and stored at -80° until determination of viral titer.
Viral titration was performed by a modification of the colorimetric assay method of M. Langlois et al., Journal of Biological Standardization, 14, 201 (1986), and which is described in detail by R. Deziel and Y. Guindon, supra.
Accordingly, the percentage of virus growth inhibition can be determined for the various concentrations of the test agent, and the concentration of the test agent (i.e. the peptide of formula 1) effecting a 50% inhibition of virus replication, i.e. the EC50, can be calculated.

[1] = target: T1, HSV-1 ribonucleotide reductase (Human herpesvirus 1, UniProt P08543); assay: Inhibition of Herpes Simplex virus (HSV-1) ribonucleotide reductase; type: biochemical; settings: partially purified enzyme from HSV-1 strain F infected BHK-21/C13 cells; mean of four assays; read-out: IC50, concentration causing a 50% reduction of the HSV-1 ribonucleotide reductase activity
T1 construct: obtained from quiescent BHK-21/C13 cells infected with strain F HSV-1 virus; made in house; host or cells: quiescent BHK-21/C13 cells infected with HSV-1 strain F (virus-encoded enzyme, partially purified)
Excerpt: Inhibition of Herpes Simplex virus (HSV-1) Ribonucleotide Reductase
HSV-1 ribonucleotide reductase (partially purified) was obtained from quiescent BHK-21/C13 cells infected with strain F HSV-1 virus at 10 plaque forming units/cell as described by E. A. Cohen et al., J. Gen. Virol., 66, 733 (1985).
The assay described by P. Gaudreau et al., J. Biol. Chem., 262, 12413 (1987), is used to evaluate the capability of the compounds of this invention to inhibit HSV-1 ribonucleotide reductase activity. Results are expresed as the concentration of the compound producing 50% of the maximal inhibition (IC50) of enzyme activity. The number of units of the enzyme preparation used in each assay was constant, based on the specific activity of the enzyme preparation. The results are relative to the activity obtained in control experiments without the test compound and represent the mean of four assays that varied less than 10% with each other.

T1 sequence (P08543 whole entry): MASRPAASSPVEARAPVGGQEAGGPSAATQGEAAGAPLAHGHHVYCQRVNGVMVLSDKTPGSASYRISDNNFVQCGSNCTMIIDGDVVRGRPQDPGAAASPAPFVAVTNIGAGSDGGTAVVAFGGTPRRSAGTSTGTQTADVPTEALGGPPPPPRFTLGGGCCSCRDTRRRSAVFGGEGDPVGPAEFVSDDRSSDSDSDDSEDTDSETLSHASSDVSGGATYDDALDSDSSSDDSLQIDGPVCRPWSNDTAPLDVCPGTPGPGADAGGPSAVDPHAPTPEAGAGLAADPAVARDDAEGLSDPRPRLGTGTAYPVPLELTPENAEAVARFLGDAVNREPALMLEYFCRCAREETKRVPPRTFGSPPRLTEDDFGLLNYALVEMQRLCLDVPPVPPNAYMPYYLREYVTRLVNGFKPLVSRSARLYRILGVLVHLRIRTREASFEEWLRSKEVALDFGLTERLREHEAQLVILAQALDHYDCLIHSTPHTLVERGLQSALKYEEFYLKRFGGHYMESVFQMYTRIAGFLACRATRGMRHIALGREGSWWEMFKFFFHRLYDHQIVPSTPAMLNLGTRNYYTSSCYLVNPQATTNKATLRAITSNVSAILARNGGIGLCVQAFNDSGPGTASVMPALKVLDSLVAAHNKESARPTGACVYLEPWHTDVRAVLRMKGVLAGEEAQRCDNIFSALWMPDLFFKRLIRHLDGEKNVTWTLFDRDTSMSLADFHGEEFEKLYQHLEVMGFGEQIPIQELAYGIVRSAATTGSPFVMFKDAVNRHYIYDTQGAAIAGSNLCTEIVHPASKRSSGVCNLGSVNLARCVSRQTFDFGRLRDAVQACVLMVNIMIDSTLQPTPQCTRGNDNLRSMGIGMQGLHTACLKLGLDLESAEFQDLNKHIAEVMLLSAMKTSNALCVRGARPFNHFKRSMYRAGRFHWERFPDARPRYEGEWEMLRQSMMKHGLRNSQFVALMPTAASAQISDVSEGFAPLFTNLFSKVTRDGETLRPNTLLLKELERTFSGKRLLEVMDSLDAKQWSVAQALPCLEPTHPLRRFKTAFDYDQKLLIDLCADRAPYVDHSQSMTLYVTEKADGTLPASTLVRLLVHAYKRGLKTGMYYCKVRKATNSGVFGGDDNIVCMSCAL

Q: For `CC[C@@H](NC(=O)[C@@H](NC(=O)[C@H](CC(=O)N1CCCC1)NC(=O)[C@@H](NC(=O)[C@H](C(C)C)N(C)C(=O)C(Cc1ccccc1)Cc1ccccc1)C(C)(C)C)C1(C(=O)O)CCCC1)C(C)(C)C` [(PhCH2)2 CHC (O)--(N-Me)-Val-Tbg-Asp(pyrrolidino)-Asp(cyPn)-NH--(R)--CH(C2 H5)C(CH3)3] (Dibenzylacetyl-[NMeV][Tle]D(Pyrrolidide)[Asp(3,3-(CH2)4)]-X1), which EC50 (HSV-2) is on record?
A: Its EC50 is < 2000 nM.

Q: How did the EC50 (HSV-2) turn out when `CC(C)[C@@H](C(=O)N[C@H](C(=O)N[C@@H](CC(=O)N1CCCC1)C(=O)N[C@H](C(=O)N[C@@H](CC(C)(C)C)C(=O)O)C1(C(=O)O)CCCC1)C(C)(C)C)N(C)C(=O)C(Cc1ccccc1)Cc1ccccc1` [(PhCH2)2 CHC(O)--(N-Me)-Val-Tbg-Asp (pyrrolidino)-Asp(cyPn)-γMeLeu-OH] (Dibenzylacetyl-[NMeV][Tle]D(Pyrrolidide)[Asp(3,3-(CH2)4)][tBuAla]-OH) was run?
A: The EC50 was 6000 nM.

Q: With `CC(C)[C@@H](C(=O)N[C@H](C(=O)N[C@@H](CC(=O)N1CCCC1)C(=O)N[C@H](C(=O)NCC(C)(C)C)C1(C(=O)O)CCCC1)C(C)(C)C)N(C)C(=O)C(Cc1ccccc1)Cc1ccccc1` [(PhCH2)2 CHC(O)--(N-Me)-Val-Tbg-Asp(pyrrolidino)-Asp(cyPn)-NHCH2 C(CH3)3] (Dibenzylacetyl-[NMeV][Tle]D(Pyrrolidide)[Asp(3,3-(CH2)4)]-NHCH2tBu) as the compound, how does the EC50 (HSV-2) read?
A: The EC50 was 1600 nM.

Q: For `CC(C)[C@@H](C(=O)N[C@H](C(=O)N[C@@H](CC(=O)N1CCCC1)C(=O)N[C@H](C(=O)N[C@H](CO)CC(C)(C)C)C1(C(=O)O)CCCC1)C(C)(C)C)N(C)C(=O)C(Cc1ccccc1)Cc1ccccc1` [Example 3, (PhCH2)2 CHC(O)--(N-Me)-Val-Tbg-Asp(pyrrolidino)-Asp(cyPn)-γMeLeucinol] (Dibenzylacetyl-[NMeV][Tle]D(Pyrrolidide)[Asp(3,3-(CH2)4)]-{Leu(γ-Me)ol}), which IC50 [1] is on record?
A: The IC50 was 170 nM.

Q: What about the EC50 (HSV-2) of the same compound?
A: Its EC50 is 3000 nM.
